Where two headings read alike, the source gives them in different places.
Key:
sorbose dehydrogenase [1] = target: T1, sorbose dehydrogenase (Sinorhizobium meliloti, UniProt Q92YU0); assay: Inhibitor test: additive in the reaction solution for the activity measurement; format: biochemical, Sinorhizobium sp. 97507; conditions: for activity at 1000 µM: read-out: Relative activity (%)
sorbose dehydrogenase [2] = target: T1, sorbose dehydrogenase; assay: Substrate specificity of sorbose dehydrogenase (relative reactivity, DCIP method); format: biochemical, Sinorhizobium sp. 97507
Protocol: One mL of a 0.1 M potassium phosphate buffer, pH 7.0, 1.0 mL of 1.0 M L-sorbose, 0.14 mL of 3 mM 2,6-dichlorophenol indophenol (DCIP), 0.2 mL of 3 mM 1-methoxy-5-methylphenazinium methyl sulfate, and 0.61 mL of water were added to a 3 mL quartz cell, and the quartz cell was set to a spectrophotometer equipped with a thermostat cell holder, and incubated at 37° C. for ten minutes. Then, 0.05 mL of the enzyme solution was added to the quartz cell, and changes in absorbance of DCIP at 600 nm (AABS600/min) was measured at 37° C. As the molar extinction coefficient of DCIP at pH 7.0 is known as 16.3 mM^−1, and the amount of enzyme that reduced 1 μmol of DCIP for one minute is defined as one unit. Following the definition, the concentration of enzyme activity was calculated based on the following equation. enzyme activity (units/mL)=(−ΔABS600/min×3.0×dilution rate)/(16.3×1.0×0.05)
Measurement conditions in the above “method of measuring enzyme activity” were suitably modified as necessary, and the optimal pH, pH stability, optimal temperature, temperature stability, substrate specificity, Km value, total molecular weight, subunit molecular weight, inhibitor, and product of the enzyme reaction were identified. The properties of the enzyme were evaluated in accordance with the following tests.
[…]. The results are shown as a relative value of each substrate with reference to the value of activity of L-sorbose as a standard.

[3] = additive final concentration 1.0 mM, control without additive = 100%
[4] = substrate 333 mM (lactose 167 mM)
[5] = substrate final concentration 333 mM, relative to activity of L-sorbose as standard (100)
[6] = substrate final concentration 333 mM, […]

T1 sequence (Q92YU0 entry or part of it): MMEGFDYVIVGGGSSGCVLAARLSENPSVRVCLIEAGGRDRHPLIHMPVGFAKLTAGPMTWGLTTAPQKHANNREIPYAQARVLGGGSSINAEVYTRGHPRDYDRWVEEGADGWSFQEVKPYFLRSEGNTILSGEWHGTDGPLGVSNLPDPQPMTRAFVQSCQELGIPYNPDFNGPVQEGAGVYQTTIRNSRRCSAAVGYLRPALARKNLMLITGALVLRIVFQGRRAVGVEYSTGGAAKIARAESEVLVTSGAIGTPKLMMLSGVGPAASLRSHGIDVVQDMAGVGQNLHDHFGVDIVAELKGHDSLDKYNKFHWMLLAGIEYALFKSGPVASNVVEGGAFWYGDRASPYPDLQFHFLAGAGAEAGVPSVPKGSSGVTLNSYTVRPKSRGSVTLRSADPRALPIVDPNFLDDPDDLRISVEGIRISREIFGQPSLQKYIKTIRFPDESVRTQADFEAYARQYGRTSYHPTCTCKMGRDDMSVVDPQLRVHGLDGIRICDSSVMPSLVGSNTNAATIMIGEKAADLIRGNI

2-(p-)nitrobenzoic acid
Relative activity (%) (sorbose dehydrogenase [1]; [3]): 75%

O=C(O)CC(O)C(=O)O (racemic) [DL-malic acid]
Relative activity (%) (sorbose dehydrogenase [1]; [3]): 85%

O=C(O)C(O)C(O)C(=O)O (racemic) [DL-tartaric acid]
Relative activity (%) (sorbose dehydrogenase [1]; [3]): 86%

OC[C@H]1OC[C@H](O)[C@@H](O)[C@@H]1O [1,5-anhydroglucitol]
Effect of the sorbose dehydrogenase on the substrate (in words) (sorbose dehydrogenase [2]; [4]): strong effect | Relative activity (%) (sorbose dehydrogenase [2]; [5]): 79.1%

c1cnc2c(c1)ccc1cccnc12 [1,10-phenanthroline]
activity at 1000 µM (sorbose dehydrogenase [1]; [3]): 77%

CCCCO [1-butanol]
Effect of the sorbose dehydrogenase on the substrate (in words) (sorbose dehydrogenase [2]): weak effect | Relative activity (%) (sorbose dehydrogenase [2]): 1.29%

CCCO [1-propanol]
Effect of the sorbose dehydrogenase on the substrate (in words) (sorbose dehydrogenase [2]; [4]): little effect | Relative activity (%) (sorbose dehydrogenase [2]; [5]): 0.75%

c1ccc(-c2ccccn2)nc1 [2,2′-bipyridine]
activity at 1000 µM (sorbose dehydrogenase [1]; [3]): 88%

CC(O)C(C)O (centres unmarked) [2,3-butanediol]
Effect of the sorbose dehydrogenase on the substrate (in words) (sorbose dehydrogenase [2]): little effect | Relative activity (%) (sorbose dehydrogenase [2]): 0.26%

CCC(C)O (centres unmarked) [2-butanol]
Effect of the sorbose dehydrogenase on the substrate (in words) (sorbose dehydrogenase [2]): little effect

CC(C)CO [2-methyl-1-propanol]
Effect of the sorbose dehydrogenase on the substrate (in words) (sorbose dehydrogenase [2]; [4]): weak effect | Relative activity (%) (sorbose dehydrogenase [2]; [5]): 2.06%

CCCC(C)O (centres unmarked) [2-pentanol]
Effect of the sorbose dehydrogenase on the substrate (in words) (sorbose dehydrogenase [2]; [4]): little effect

CC(C)O [2-propanol]
Effect of the sorbose dehydrogenase on the substrate (in words) (sorbose dehydrogenase [2]; [4]): little effect | Relative activity (%) (sorbose dehydrogenase [2]; [5]): 0.39%

Oc1cccc2cccnc12 [8-quinolinol]
Relative activity (%) (sorbose dehydrogenase [1]): 106%

[Cl][Al]([Cl])[Cl] [AlCl3]
Relative activity (%) (sorbose dehydrogenase [1]; [3]): 109%

C=CCO [Allyl alcohol]
Effect of the sorbose dehydrogenase on the substrate (in words) (sorbose dehydrogenase [2]; [4]): weak effect | Relative activity (%) (sorbose dehydrogenase [2]; [6]): 3.80%

NN=C(N)N.O=S(=O)(O)O [Aminoguanidine sulfate]
Relative activity (%) (sorbose dehydrogenase [1]): 91%

[Ba+2].[Cl-].[Cl-] [BaCl2]
Relative activity (%) (sorbose dehydrogenase [1]; [3]): 80%

O=C(O)c1ccccc1 [Benzoic acid]
activity at 1000 µM (sorbose dehydrogenase [1]): 101%

[Ca+2].[Cl-].[Cl-] [CaCl2]
Relative activity (%) (sorbose dehydrogenase [1]): 92%

[Cl][Cd][Cl] [CdCl2]
Relative activity (%) (sorbose dehydrogenase [1]): 91%

O=C(O)CC(O)(CC(=O)O)C(=O)O [Citric acid]
activity at 1000 µM (sorbose dehydrogenase [1]): 86%

[Cl][Cu][Cl] [CuCl2]
Relative activity (%) (sorbose dehydrogenase [1]; [3]): 0% | Inhibition of the sorbose dehydrogenase (in words) (sorbose dehydrogenase [1]; heavy metal ions, 1 mM): remarkably inhibited

O=C[C@H](O)[C@@H](O)[C@@H](O)[C@H](O)CO [D-(+)-galactose]
Effect of the sorbose dehydrogenase on the substrate (in words) (sorbose dehydrogenase [2]; [4]): weak effect | Relative activity (%) (sorbose dehydrogenase [2]; [6]): 1.69%

O=C[C@H](O)[C@@H](O)[C@H](O)[C@H](O)CO [D-(+)-glucose]
Effect of the sorbose dehydrogenase on the substrate (in words) (sorbose dehydrogenase [2]; [4]): weak effect | Relative activity (%) (sorbose dehydrogenase [2]; [6]): 1.22%

O=C[C@@H](O)[C@@H](O)[C@H](O)[C@H](O)CO [D-(+)-mannose]
Effect of the sorbose dehydrogenase on the substrate (in words) (sorbose dehydrogenase [2]; [4]): little effect | Relative activity (%) (sorbose dehydrogenase [2]; [6]): 0.15%

O=C(CO)[C@@H](O)[C@H](O)[C@H](O)CO [D-(−)-fructose]
Effect of the sorbose dehydrogenase on the substrate (in words) (sorbose dehydrogenase [2]; [4]): little effect | Relative activity (%) (sorbose dehydrogenase [2]; [6]): 0%

O=C(CO)[C@H](O)[C@@H](O)[C@H](O)CO [D-(−)-sorbose]
Effect of the sorbose dehydrogenase on the substrate (in words) (sorbose dehydrogenase [2]; [4]): weak effect | Relative activity (%) (sorbose dehydrogenase [2]; [6]): 2.96%

OC[C@H]1O[C@@H](O[C@H]2[C@H](O)[C@@H](O)[C@H](O)O[C@@H]2CO)[C@H](O)[C@@H](O)[C@@H]1O [D-cellobiose]
Effect of the sorbose dehydrogenase on the substrate (in words) (sorbose dehydrogenase [2]; [4]): little effect

N[C@@H]1CONC1=O [D-cycloserine]
Relative activity (%) (sorbose dehydrogenase [1]; [3]): 90%

OC[C@@H](O)[C@@H](O)[C@H](O)[C@H](O)CO [D-mannitol]
Effect of the sorbose dehydrogenase on the substrate (in words) (sorbose dehydrogenase [2]; [4]): little effect

OC[C@H]1O[C@H](OC[C@H]2O[C@H](O[C@]3(CO)O[C@H](CO)[C@@H](O)[C@@H]3O)[C@H](O)[C@@H](O)[C@@H]2O)[C@H](O)[C@@H](O)[C@H]1O [D-raffinose]
Effect of the sorbose dehydrogenase on the substrate (in words) (sorbose dehydrogenase [2]; [4]): little effect

O=C[C@H](O)[C@H](O)[C@H](O)CO [D-ribose]
Effect of the sorbose dehydrogenase on the substrate (in words) (sorbose dehydrogenase [2]; [4]): little effect

OC[C@@H](O)[C@@H](O)[C@H](O)[C@@H](O)CO [D-sorbitol]
Effect of the sorbose dehydrogenase on the substrate (in words) (sorbose dehydrogenase [2]; [4]): little effect

OC[C@H]1O[C@H](O[C@H]2O[C@H](CO)[C@@H](O)[C@H](O)[C@H]2O)[C@H](O)[C@@H](O)[C@@H]1O [D-trehalose]
Effect of the sorbose dehydrogenase on the substrate (in words) (sorbose dehydrogenase [2]; [4]): little effect

O=C[C@H](O)[C@@H](O)[C@H](O)CO [D-xylose]
Effect of the sorbose dehydrogenase on the substrate (in words) (sorbose dehydrogenase [2]; [4]): little effect

O=C([O-])CN(CCN(CC(=O)O)CC(=O)O)CC(=O)[O-].[Na+].[Na+] [EDTA-2Na]
Relative activity (%) (sorbose dehydrogenase [1]): 102%

CCO [Ethanol]
Effect of the sorbose dehydrogenase on the substrate (in words) (sorbose dehydrogenase [2]): little effect | Relative activity (%) (sorbose dehydrogenase [2]): 0%

[Cl][Fe]([Cl])[Cl] [FeCl3]
Relative activity (%) (sorbose dehydrogenase [1]; [3]): 89%

O=C(O)/C=C/C(=O)O [Fumaric acid]
activity at 1000 µM (sorbose dehydrogenase [1]): 99%

OCC(O)CO [Glycerol]
Effect of the sorbose dehydrogenase on the substrate (in words) (sorbose dehydrogenase [2]; [4]): little effect | Relative activity (%) (sorbose dehydrogenase [2]; [6]): 0%

OO [H2O2]
Relative activity (%) (sorbose dehydrogenase [1]): 98%

[Cl][Hg][Cl] [HgCl2]
Relative activity (%) (sorbose dehydrogenase [1]; [3]): 0% | Inhibition of the sorbose dehydrogenase (in words) (sorbose dehydrogenase [1]; heavy metal ions, 1 mM): remarkably inhibited

O=C(O)CI [Iodoacetic acid]
activity at 1000 µM (sorbose dehydrogenase [1]): 83%

O=C[C@H](O)[C@@H](O)[C@@H](O)CO [L-arabinose]
Effect of the sorbose dehydrogenase on the substrate (in words) (sorbose dehydrogenase [2]; [4]): little effect

C[C@H](O)[C@H](O)[C@@H](O)[C@@H](O)C=O [L-rhamnose]
Effect of the sorbose dehydrogenase on the substrate (in words) (sorbose dehydrogenase [2]; [4]): little effect

OC[C@H]1O[C@@H](O[C@H]2[C@H](O)[C@@H](O)C(O)O[C@@H]2CO)[C@H](O)[C@@H](O)[C@H]1O (some centres unmarked) [Lactose]
Effect of the sorbose dehydrogenase on the substrate (in words) (sorbose dehydrogenase [2]; [4]): little effect | Relative activity (%) (sorbose dehydrogenase [2]; substrate final concentration 167 mM (lactose), […]): 0.71%

[Cl-].[Li+] [LiCl]
Relative activity (%) (sorbose dehydrogenase [1]; [3]): 98%

O=C(O)/C=C\C(=O)O [Maleic acid]
activity at 1000 µM (sorbose dehydrogenase [1]): 82%

OC[C@H]1O[C@H](O[C@H]2[C@H](O)[C@@H](O)[C@H](O)O[C@@H]2CO)[C@H](O)[C@@H](O)[C@@H]1O [Maltose]
Effect of the sorbose dehydrogenase on the substrate (in words) (sorbose dehydrogenase [2]; [4]): little effect | Relative activity (%) (sorbose dehydrogenase [2]; [6]): 0%

[Cl-].[Cl-].[Mg+2] [MgCl2]
Relative activity (%) (sorbose dehydrogenase [1]): 93%

[Cl][Mn][Cl] [MnCl2]
Inhibition of the sorbose dehydrogenase (in words) (sorbose dehydrogenase [1]): remarkably inhibited | Relative activity (%) (sorbose dehydrogenase [1]): 11%

CCN1C(=O)C=CC1=O [N-ethylmaleimide]
activity at 1000 µM (sorbose dehydrogenase [1]; [3]): 88%

[Cl-].[Na+] [NaCl]
Relative activity (%) (sorbose dehydrogenase [1]): 85%

[N-]=[N+]=[N-].[Na+] [NaN3]
Relative activity (%) (sorbose dehydrogenase [1]): 115%

[Cl][Ni][Cl] [NiCl2]
Relative activity (%) (sorbose dehydrogenase [1]): 80%

[Cl][Pb][Cl] [PbCl2]
Relative activity (%) (sorbose dehydrogenase [1]): 83%

[Cl][Sn][Cl] [SnCl2]
Relative activity (%) (sorbose dehydrogenase [1]; additive final concentration 0.5 mM, control without additive = 100%): 86%

O=S(=O)(O)c1cc(O)c(O)c(S(=O)(=O)O)c1 [Tiron]
activity at 1000 µM (sorbose dehydrogenase [1]; [3]): 89%

NC(N)=O [Urea]
Relative activity (%) (sorbose dehydrogenase [1]; [3]): 92%

OC[C@@H](O)[C@H](O)[C@@H](O)CO [Xylitol]
Effect of the sorbose dehydrogenase on the substrate (in words) (sorbose dehydrogenase [2]; [4]): little effect | Relative activity (%) (sorbose dehydrogenase [2]; [5]): 0.89%

O[C@H]1[C@H](O)[C@@H](O)[C@H](O)[C@@H](O)[C@H]1O [inositol]
Effect of the sorbose dehydrogenase on the substrate (in words) (sorbose dehydrogenase [2]; [4]): little effect

OC[C@@H](O)[C@@H](O)CO [meso-erythritol]
Effect of the sorbose dehydrogenase on the substrate (in words) (sorbose dehydrogenase [2]; [4]): little effect

CO [methanol]
Effect of the sorbose dehydrogenase on the substrate (in words) (sorbose dehydrogenase [2]): little effect

CC(O)CO (centres unmarked) [propylene glycol]
Effect of the sorbose dehydrogenase on the substrate (in words) (sorbose dehydrogenase [2]; [4]): little effect

OC[C@H]1O[C@@](CO)(O[C@H]2O[C@H](CO)[C@@H](O)[C@H](O)[C@H]2O)[C@@H](O)[C@@H]1O [sucrose]
Effect of the sorbose dehydrogenase on the substrate (in words) (sorbose dehydrogenase [2]; [4]): little effect

— patent US8945864B2, “Method of determining 1,5-anhydroglucitol, and reagent composition for determining 1,5-anhydroglucitol” (Ikeda Food Research Co., Ltd., priority 2006, dated 2015)
